Laboratory results: US10414754B2, “Indolizine compounds, a process for their preparation and pharmaceutical compositions containing them” (LES LABORATOIRES SERVIER, priority 2013, dated 2019)
Where a name gives a salt, the structure may show the parent alone.

Assays:
[1] = tested on: RS4;11 leukaemia tumour line; assay: In vitro cytotoxicity (MTT) on RS4;11; type: cell-based; conditions: RS4;11 cells, 48 hours exposure
Protocol: The cytotoxicity studies were carried out on the RS4;11 leukaemia tumour line.
The cells are distributed onto microplates and exposed to the test compounds for 48 hours.
The cell viability is then quantified by a colorimetric assay, the Microculture Tetrazolium Assay (Cancer Res., 1987, 47, 939-942).

Bcl-2 protein = biological target: T1, Bcl-2 protein (histag-Bcl-2, UniProtKB P10415) (Homo sapiens, UniProt P10415); assay: Inhibition of Bcl-2 by the fluorescence polarisation technique; type: binding; conditions: for IC50: fluorescence polarisation, 2 hours incubation, read-out: IC50 (nM) Bcl-2 FP
T1 construct: His tag
T1 sequence (P10415 whole entry): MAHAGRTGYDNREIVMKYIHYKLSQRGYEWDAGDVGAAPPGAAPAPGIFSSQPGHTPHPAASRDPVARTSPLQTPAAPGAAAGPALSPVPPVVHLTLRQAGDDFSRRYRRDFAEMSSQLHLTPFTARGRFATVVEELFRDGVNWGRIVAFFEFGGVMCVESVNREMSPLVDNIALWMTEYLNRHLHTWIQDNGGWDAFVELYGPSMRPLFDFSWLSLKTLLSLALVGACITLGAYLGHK
Method in brief: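 Fluorescence polarisation competition: His-tagged human Bcl-2 (2.50×10^−8 M final) was mixed with fluorescein-labelled peptide (1.00×10^−8 M final) and increasing compound concentrations. Buffer was 10 mM Hepes, 150 mM NaCl, 0.05% Tween20, pH 7.4. Polarisation was read after 2 h.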

Structure (SMILES) | IC50 ([1]; Homo sapiens) | IC50 (Bcl-2 protein) | IC50 [1] | percentage fluorescence polarisation inhibition (partial inhibitors), Bcl-2 FP (Bcl-2 protein; @ 10 μM test compound)
C[C@@H]1Cc2ccccc2CN1C(=O)c1ccc(F)cc1-c1cc(C(=O)N(c2ccc(O)cc2)c2cnn(C)c2)c2ccccn12 [Example 60, 3-(5-Fluoro-2-{[(3R)-3-methyl-3,4-dihydroisoquinolin-2(1H)-yl]-carbonyl}phenyl)-N-(4-hydroxyphenyl)-N-(1-methyl-1H-pyrazol-4-yl)indolizine-1-carboxamide] | 60.3 nM | 5.4 nM |  | 
C[C@@H]1Cc2ccccc2CN1C(=O)c1ccc(F)cc1-c1cc(C(=O)N(c2ccc(O)cc2)c2cnn(C)c2)c2n1CCCC2 [Example 61, 3-(5-Fluoro-2-{[(3R)-3-methyl-3,4-dihydroisoquinolin-2(1H)-yl]-carbonyl}phenyl)-N-(4-hydroxyphenyl)-N-(1-methyl-1H-pyrazol-4-yl)-5,6,7,8-tetrahydroindolizine-1-carboxamide] | 61.3 nM | 7 nM |  | 
C[C@@H]1Cc2ccccc2CN1C(=O)c1ccc(F)cc1-c1cc(C(=O)N(c2ccncc2)c2ccc(O)cc2)c2ccccn12 [Example 62, 3-(5-Fluoro-2-{[(3R)-3-methyl-3,4-dihydroisoquinolin-2(1H)-yl]-carbonyl}phenyl)-N-(4-hydroxyphenyl)-N-(pyridin-4-yl)indolizine-1-carboxamide] | 96.6 nM | 5.6 nM |  | 
C[C@@H]1Cc2ccccc2CN1C(=O)c1ccc(F)cc1-c1cc(C(=O)N(c2ccc(O)cc2)c2cnc3c(ccn3C)c2)c2ccccn12 [Example 63, 3-(5-Fluoro-2-{[(3R)-3-methyl-3,4-dihydroisoquinolin-2(1H)-yl]-carbonyl}phenyl)-N-(4-hydroxyphenyl)-N-(1-methyl-1H-pyrrolo[2,3-b]pyridin-5-yl)indolizine-1-carboxamide] | 25.4 nM | 6.2 nM |  | 
C[C@@H]1Cc2ccccc2CN1C(=O)c1ccc(F)cc1-c1cc(C(=O)N(c2ccncc2)c2ccc(O)cc2)c2n1CCCC2 [Example 64, 3-(5-Fluoro-2-{[(3R)-3-methyl-3,4-dihydroisoquinolin-2(1H)-yl]-carbonyl}phenyl)-N-(4-hydroxyphenyl)-N-(pyridin-4-yl)-5,6,7,8-tetrahydroindolizine-1-carboxamide] | 282 nM | 7.8 nM |  | 
C[C@@H]1Cc2ccccc2CN1C(=O)c1ccc(F)cc1-c1cc(C(=O)N(c2ccc(O)cc2)c2cnc3c(ccn3C)c2)c2n1CCCC2 [Example 65, 3-(5-Fluoro-2-{[(3R)-3-methyl-3,4-dihydroisoquinolin-2(1H)-yl]-carbonyl}phenyl)-N-(4-hydroxyphenyl)-N-(1-methyl-1H-pyrrolo[2,3-b]pyridin-5-yl)-5,6,7,8-tetrahydroindolizine-1-carboxamide] | 62.8 nM | 5.3 nM |  | 
C[C@@H]1Cc2ccccc2CN1C(=O)c1cc2c(cc1-c1cc(C(=O)N(c3ccc(O)cc3)c3cnc4ncnn4c3)c3ccccn13)OCO2 [Example 66, N-(4-Hydroxyphenyl)-3-(6-{[(3R)-3-methyl-3,4-dihydroisoquinolin-2(1H)-yl]carbonyl}-1,3-benzodioxol-5-yl)-N-([1,2,4]triazolo[1,5-a]pyrimidin-6-yl)-indolizine-1-carboxamide] | 42 nM | 4.7 nM |  | 
C[C@@H]1Cc2ccccc2CN1C(=O)c1ccccc1-c1cc(C(=O)N(c2ccncc2)c2ccc(O)cc2)c2ccccn12 [Example 68, N-(4-Hydroxyphenyl)-3-(2-{[(3R)-3-methyl-3,4-dihydroisoquinolin-2(1H)-yl]carbonyl}phenyl)-N-(pyridin-4-yl)indolizine-1-carboxamide hydrochloride] | 82.4 nM | 8.3 nM |  | 
Cn1ccc2cc(N(C(=O)c3cc(-c4cc5c(cc4C(=O)N4Cc6ccccc6C[C@H]4CCCN4CCOCC4)OCO5)n4c3CCCC4)c3ccc(O)cc3)cnc21 [Example 69, N-(4-Hydroxyphenyl)-N-(1-methyl-1H-pyrrolo[2,3-b]pyridin-5-yl)-3-(6-{[(3R)-3-[3-(morpholin-4-yl)propyl]-3,4-dihydroisoquinolin-2(1H)-yl]carbonyl}-1,3-benzodioxol-5-yl)-5,6,7,8-tetrahydroindolizine-1-carboxamide hydrochloride] | 1.38 nM | 4.6 nM |  | 
C[C@@H]1Cc2ccccc2CN1C(=O)c1cc2c(cc1-c1cc(C(=O)N(c3ccc(O)cc3)c3cnc4c(cnn4C)c3)c3ccccn13)OCO2 [Example 70, N-(4-Hydroxyphenyl)-3-(6-{[(3R)-3-methyl-3,4-dihydroisoquinolin-2(1,H)-yl]carbonyl]-1,3-benzodioxol-5-yl)-N-(1-methyl-1H-pyrazolo[3,4-b]pyridin-5-yl)indolizine-1-carboxamide] | 6.17 nM | 5.2 nM |  | 
C[C@@H]1Cc2ccccc2CN1C(=O)c1cc2c(cc1-c1cc(C(=O)N(C)c3ccc(O)cc3)c3n1CCNC3)OCO2 [Example 72, N-(4-Hydroxyphenyl)-N-methyl-6-(6-{[(3R)-3-methyl-3,4-dihydroiso-quinolin-2(1H)-yl]carbonyl}-1,3-benzodioxol-5-yl)-1,2,3,4-tetrahydropyrrolo[1,2-a]-pyrazine-8-carboxamide] | 1520 nM | 90.2 nM |  | 
CCN(C(=O)c1cc(-c2cc3c(cc2C(=O)N2Cc4ccccc4C[C@H]2C)OCO3)n2c1CNCC2)c1ccc(O)cc1 [Example 73, N-Ethyl-N-(4-hydroxyphenyl)-6-(6-{[(3R)-3-methyl-3,4-dihydroiso-quinolin-2(1H)-yl]carbonyl}-1,3-benzodioxol-5-yl)-1,2,3,4-tetrahydropyrrolo[1,2-a]-pyrazine-8-carboxamide] | 1320 nM | 83.6 nM |  | 
CN(C(=O)c1cc(-c2cc3c(cc2C(=O)N2CCc4ccccc4C2)OCO3)n2c1CCCC2)c1ccc(O)cc1 [Example 74, 3-[6-(3,4-Dihydroisoquinolin-2(1H)-ylcarbonyl)-1,3-benzodioxol-5-yl]-N-(4-hydroxyphenyl)-N-methyl-5,6,7,8-tetrahydroindolizine-1-carboxamide] | 1340 nM | 68.7 nM |  | 
CCN(C(=O)c1cc(-c2cc3c(cc2C(=O)N2CCc4ccccc4C2)OCO3)n2c1CCCC2)c1ccc(O)cc1 [Example 75, 3-[6-(3,4-Dihydroisoquinolin-2(11)-ylcarbonyl)-1,3-benzodioxol-5-yl]-N-ethyl-N-(4-hydroxyphenyl)-5,6,7,8-tetrahydroindolizine-1-carboxamide] | 1360 nM | 67.7 nM |  | 
CCCCN(C(=O)c1cc(-c2cc3c(cc2C(=O)N2CCc4ccccc4C2)OCO3)n2c1CCCC2)c1ccc(O)cc1 [Example 76, N-Butyl-3-[6-(3,4-dihydroisoquinolin-2(1H)-ylcarbonyl)-1,3-benzo-dioxol-5-yl]-N-(4-hydroxyphenyl)-5,6,7,8-tetrahydroindolizine-1-carboxamide] | 1630 nM | 77.6 nM |  | 
CCN(C(=O)c1cc(-c2cc3c(cc2C(=O)N2Cc4ccccc4C[C@@H]2C)OCO3)n2c1CNCC2)c1ccc(O)cc1 [Example 77, N-Ethyl-N-(4-hydroxyphenyl)-6-(6-{[(3S)-3-methyl-3,4-dihydroiso-quinolin-2(1H)-yl]carbonyl}-1,3-benzodioxol-5-yl)-1,2,3,4-tetrahydropyrrolo[1,2-a]-pyrazine-8-carboxamide] |  |  | 1880 nM | 25.1% @ 10 μM
